In assay [1] the target is T1, His-TEV-DYRK1A Kinase domain (aa127-485) (Homo sapiens, UniProt Q13627).
T1 construct: His-TEV-DYRK1A Kinase domain (aa127-485); His tag (N); TEV protease cleavage site (N)
Kind of assay: Kinase ADP assay (ADP Hunter), DYRK1A kinase domain. As to conditions: 20 μM ATP. The assay is classed as biochemical. The method, then:
The enzyme reaction was conducted in assay buffer (pH 7.4), containing 15 mM Hepes; 20 mM NaCl; 1 mM EGTA; 10 mM MgCl2; 0.02% Tween20 and 0.1 mg/ml Bovine-y-globulin. Test compounds of the invention were added in reaction buffer in a range of concentrations for 10 minutes at 30° C. in the presence of 20 nM DYRK1A enzyme, 40 μM peptide substrate and 20 μM ATP. Detection reagents (DiscoveRx 90-0083), ADP Hunter Plus Reagent A and then ADP Hunter Plus Reagent B were added. After a following 20 minutes incubation at 30° C., ADP Hunter Plus Stop Solution was added. The fluorescence intensity was measured at 590 nm.

Assay [2] addresses T2, DYRK1A (Homo sapiens, UniProt Q13627). Description: Kinase TR-FRET assay, DYRK1A. The class given is biochemical. Details: full-length, wild-type human DYRK1A (NM_001396) with an HA tag; expressed in transfected cells; host or cells: human U2-OS osteosarcoma cells, transient transfection of a pcDNA3.1 plasmid. To be noted: full-length human kinase, 10 μM ATP. The method, then:
Inhibition of the enzymatic activity of human kinases was evaluated in a Time-Resolved Fluorescence Resonance Energy Transfer (TR-FRET) assay in 384-well reaction plates. […] Test compounds of the invention were added in reaction buffer at a range of concentrations from 0.1 nM to 30 μM. Following addition of EDTA (Sigma E7889, 10 mM) to stop the reaction, Europium-labelled mouse monoclonal antibody recognizing phospho-Thr232 in MBP (Perkin Elmer TRF0201, 1 nM) was added.
(Time-resolved FRET reads energy transfer from a long-lived donor to a nearby acceptor.)

For assay [3], the target named is T2, DYRK1A. Kind of assay: Cellular DYRK1 autophosphorylation assay in U2-OS cells. The class given is cell-based. Details: full-length, wild-type human DYRK1A (NM_001396) with an HA tag; expressed in transfected cells; host or cells: human U2-OS osteosarcoma cells, transient transfection of a pcDNA3.1 plasmid. As to conditions: U2-OS cells transfected with HA-tagged human DYRK1A, 5 hours exposure; read-out: IC50 (μM) P-Ser520-Dyrk1A -Cell assay. The method, then: On day 2, cells were exposed to a range of concentrations of the test compounds of the invention for 5 hours. […] The relative levels of phospho-Ser520-DYRK1A were assayed using either western blotting or the Mesoscale ELISA platform. For analysis by western blot, lysates were diluted into Laemmli sample buffer (Bio-Rad) containing 5% v/v β-mercaptoethanol, heated for 5 min at 95° C., and resolved on Tris-glycine gels or NuPage Bis-Tris gels (Novex; Invitrogen). Biotinylated molecular weight standards (Cell Signaling Technology) were included in all gels. Proteins were transferred to nitrocellulose membranes (Hybond, ECL; Amersham), which were blocked in Tris-buffered saline/0.1% tween 20 (TBST) containing 5% milk, and probed at 4° C. overnight with anti-phospho-Ser520-DYRK1A antibody (Eurogentec SE6974-75; 0.23 μg/ml in 5% BSA) or anti DYRK1A antibody (Abnova H00001859; 0.5 μg/ml in 5% milk). Peroxidase-conjugated secondary antibodies were diluted into 5% milk and applied to membranes for 1 h at 20° C. Chemiluminescence detection was performed using the ECL plus western blotting detection kit (Amersham) and was recorded on ECL plus hyperfilm (Amersham). Blots were scanned using the Bio-Rad GS-800 calibrated densitometer and quantitative analysis of western blots was performed using TotalLab software (Amersham). IC50 values for inhibition of phospho-Ser520-DYRK1A were calculated from dose-response curves plotting the ratio between phospho-Ser520-DYRK1A and total DYRK1A signals at each concentration. […] Anti-phospho-Ser520-DYRK1A antibody (Eurogentec SE6974-75; […]) and anti DYRK1A antibody (Abnova H00001859; 3 μg/ml) was then added for 1 hour at RT, followed by addition of Sulfa-TAG anti-rabbit detection antibody (ref MSD R32AB; 1 μg/ml) and Sulfa-TAG anti-mouse detection antibody (ref MSD R32-AC-1; 1 μg/ml). After a further 1 hour, Read Buffer was added and plates were read on the Sector Imager 2400 (Mesoscale). IC50 values for inhibition of phospho-Ser520-DYRK1A were calculated from dose-response curves.

Usually IC50 stands for the concentration that gives 50% inhibition. As to `Cc1nc2ccc(-c3cc(N)nc(N)c3)nc2n1Cc1ccccc1` [Example 8, 4-(3-benzyl-2-methyl-3H-imidazo[4,5-b]pyridin-5-yl)pyridine-2,6-diamine], the IC50 in assay [1] amounted to 0.128 µM; in assay [2] it was 0.061 µM.
On to `Cc1nc2ccc(-c3cc(N)nc(N)c3)nc2n1[C@H]1C[C@H]2C[C@@H]([C@@H]1C)C2(C)C` [Example 16, 4-[2-methyl-3-[(1S,2S,3S,5R)-2,6,6-trimethylbicyclo[3.1.1]hept-3-yl]-3H-imidazo[4,5-b]pyridin-5-yl]pyridine-2,6-diamine], for which the half-inhibitory concentration (IC50) came to 0.367 µM in assay [1] and 0.153 µM in assay [2].
As for `Cc1nc2ccc(-c3cc(N)nc(N)c3)nc2n1CC12CC3CC(CC(C3)C1)C2` [Example 22, 4-{2-methyl-3-tricyclo[3.3.1.1^3,7]dec-1-ylmethyl-3H-imidazo[4,5-b]pyridin-5-yl}pyridine-2,6-diamine], the IC50 in assay [1] was 0.364 µM; in assay [2], 0.069 µM.
With `CCC1(Cn2c(C)nc3ccc(-c4cc(N)nc(N)c4)nc32)CC1` [Example 88, 4-{3-[(1-ethylcyclopropyl)methyl]-2-methyl-3H-imidazo[4,5-b]pyridin-5-yl}pyridine-2,6-diamine], the IC50 came out at 0.012 µM in assay [1] and 0.103 µM in assay [3].
In the case of `COc1cccc2c1CCC(n1c(C)nc3ccc(-c4cc(N)nc(N)c4)nc31)C2` (centres unmarked) [Example 93, 4-[3-(5-methoxy-1,2,3,4-tetrahydronaphthalen-2-yl)-2-methyl-3H-imidazo[4,5-b]pyridin-5-yl]pyridine-2,6-diamine], the IC50 in assay [1] is 0.007 µM; in assay [3], 0.107 µM.
Turning to `Cc1nc2ccc(-c3cc(N)nc(N)c3)nc2n1CC1CC1(C)C` (centres unmarked) [Example 99, 4-{3-[(2,2-dimethylcyclopropyl)methyl]-2-methyl-3H-imidazo[4,5-b]pyridin-5-yl}pyridine-2,6-diamine], the values for the concentration for half-maximal inhibition (IC50) in assay [1] and in assay [3] were 0.016 µM and 0.104 µM, respectively.
As to `Cc1nc2ccc(-c3cc(N)nc(N)c3)nc2n1CC(C)(C)Oc1ccccc1` [Example 116, 4-[2-methyl-3-(2-methyl-2-phenoxypropyl)-3H-imidazo[4,5-b]pyridin-5-yl]pyridine-2,6-diamine], the values for the concentration for half-maximal inhibition (IC50) in assay [1] and in assay [3] were 0.056 µM and 0.267 µM, respectively.
As to `Cc1cccc(O[C@@H](C)Cn2c(C)nc3ccc(-c4cc(N)nc(N)c4)nc32)c1` [Example 127, 4-{2-methyl-3-[(2S)-2-(3-methylphenoxy)propyl]0.3H-imidazo[4,5-b]pyridin-5-yl}pyridine-2,6-diamine], the IC50 in assay [1] was 0.015 µM; in assay [3] it was 0.089 µM.
Taken in the same sequence, the figures for `Cc1nc2ccc(-c3cc(N)nc(N)c3)nc2n1CCCOc1ccccc1` [Example 143, 4-[2-methyl-3-(3-phenoxypropyl)-3H-imidazo[4,5-b]pyridin-5-yl]pyridine-2,6-diamine] were 0.013 µM and 0.037 µM.
Take `Cc1nc2ccc(-c3cc(N)nc(N)c3)nc2n1CCOc1ccc(Cl)cn1` [Example 164, 4-(3-{2-[(5-chloropyridin-2-yl)oxy]ethyl}-2-methyl-3H-imidazo[4,5-b]pyridin-5-yl)pyridine-2,6-diamine]: the 50% inhibitory concentration (IC50) in assay [1] is 0.032 µM; in assay [3] it was 0.152 µM.
As for `Cc1nc2ccc(-c3cc(N)nc(N)c3)nc2n1CCOc1ncccc1Cl` [Example 166, 4-(3-{2-[(3-chloropyridin-2-yl)oxy]ethyl}-2-methyl-3H-imidazo[4,5-b]pyridin-5-yl)pyridine-2,6-diamine], the IC50 in assay [1] is 0.085 µM; in assay [3], 0.25 µM.
On to `Cc1nc2ccc(-c3cc(N)nc(N)c3)nc2n1CCOc1cccc(F)n1` [Example 167, 4-(3-{2-[(6-fluoropyridin-2-yl)oxy]ethyl}-2-methyl-3H-imidazo[4,5-b]pyridin-5-yl)pyridine-2,6-diamine], for which the IC50 in assay [1] and in assay [3] was 0.011 µM each time.
In the case of `Cc1nc2ccc(-c3cc(N)nc(N)c3)nc2n1CCOc1ccc(Br)cn1` [Example 170, 4-(3-{2-[(5-bromopyridin-2-yl)oxy]ethyl}-2-methyl-3H-imidazo[4,5-b]pyridin-5-yl)pyridine-2,6-diamine], the IC50 in assay [1] stood at 0.035 µM; in assay [3], 0.131 µM.
Taken in the same sequence, the figures for `Cc1nc2ccc(-c3cc(N)nc(N)c3)nc2n1CCOc1ccc(F)cn1` [Example 171, 4-(3-{2-[(5-fluoropyridin-2-yl)oxy]ethyl}-2-methyl-3H-imidazo[4,5-b]pyridin-5-yl)pyridine-2,6-diamine] were 0.018 µM and 0.109 µM.
Taken in the same sequence, the figures for `Cc1nc2ccc(-c3cc(N)nc(N)c3)nc2n1CCOc1cccc(CF)n1` [Example 172, 4-[3-(2-{[6-(fluoromethyl)pyridin-2-yl]oxy}ethyl)-2-methyl-3H-imidazo[4,5-b]pyridin-5-yl]pyridine-2,6-diamine] were 0.007 µM and 0.092 µM.
As to `Cc1nc2ccc(-c3cc(N)nc(N)c3)nc2n1CCOc1cccc(C(F)F)n1` [Example 173, 4-[3-(2-{[6-(difluoromethyl)pyridin-2-yl]oxy}ethyl)-2-methyl-3H-imidazo[4,5-b]pyridin-5-yl]pyridine-2,6-diamine], the IC50 is 0.007 µM in assay [1] and 0.017 µM in assay [3].
`Cc1nc2ccc(-c3cc(N)nc(N)c3)nc2n1CCOc1cccc(C(F)(F)F)n1` [Example 194, 4-[2-methyl-3-(2-{[6-(trifluoromethyl)pyridin-2-yl]oxy}ethyl)-3H-imidazo[4,5-b]pyridin-5-yl]pyridine-2,6-diamine]: the figures for the IC50 in assay [1] and in assay [3] were 0.007 µM and 0.02 µM, respectively.
Taken in the same sequence, the figures for `Cc1cccc(OCCn2c(C)nc3ccc(-c4cc(N)nc(N)c4)nc32)n1` [Example 195, 4-(2-methyl-3-{2-[(6-methylpyridin-2-yl)oxy]ethyl}-3H-imidazo[4,5-b]pyridin-5-yl)pyridine-2,6-diamine] were 0.013 µM and 0.106 µM.
The matching figures for `Cc1nc2ccc(-c3cc(N)nc(N)c3)nc2n1CCOc1cccc(N)n1` [Example 196, 4-(3-{2-[(6-aminopyridin-2-yl)oxy]ethyl}-2-methyl-3H-imidazo[4,5-b]pyridin-5-yl)pyridine-2,6-diamine]: 0.012 µM and 0.141 µM.
Taken in the same sequence, the figures for `Cc1nc2ccc(-c3cc(N)nc(N)c3)nc2n1CCOc1cccc(C#N)n1` [Example 197, 6-{2-[5-(2,6-diaminopyridin-4-yl)-2-methyl-3H-imidazo[4,5-b]pyridin-3-yl]ethoxy}pyridine-2-carbonitrile] were 0.007 µM and 0.054 µM.
In the case of `Cc1ccc(OCCn2c(C)nc3ccc(-c4cc(N)nc(N)c4)nc32)cc1` [Example 208, 4-{2-methyl-3-[2-(4-methylphenoxy)ethyl]-3H-imidazo[4,5-b]pyridin-5-yl}pyridine-2,6-diamine], the half-maximal inhibitory concentration (IC50) came out at 0.016 µM in assay [1] and 0.155 µM in assay [3].
Taken in the same sequence, the figures for `Cc1nc2ccc(-c3cc(N)nc(F)c3)nc2n1C1CC(F)(F)C1` [Example 240, 4-[3-(3,3-difluorocyclobutyl)-2-methyl-3H-imidazo[4,5-b]pyridin-5-yl]-6-fluoropyridin-2-amine] were 0.016 µM and 0.153 µM.

Source of the values: patent US20180273528A1 (LES LABORATOIRES SERVIER, priority 2015, published 2018).
